Assay results reported in PMC7044277 (Nature Communications, 2020).
Several values for one entry are separate records, joined by “and”; a condition that tells them apart may be missing. Equal entries are not always repeated.

Columns and labels:
Assay type in all cases: cell-based
Design in all cases: GPCRome screening signal at PTGIR / GPCRome screening signal at PTH1R / GPCRome screening signal at PTH2R / GPCRome screening signal at QRFP / GPCRome screening signal at RXFP2 / GPCRome screening signal at RXFP3 / GPCRome screening signal at RXFP4 / GPCRome screening signal at S1PR2 / GPCRome screening signal at S1PR3 / GPCRome screening signal at S1PR4 / GPCRome screening signal at S1PR5 / GPCRome screening signal at SCTR / GPCRome screening signal at SSTR2 / GPCRome screening signal at SSSTR / GPCRome screening signal at SSTR4 / GPCRome screening signal at SSTR5 / GPCRome screening signal at SUCNR1 / GPCRome screening signal at TA1 / GPCRome screening signal at TAAR2 / GPCRome screening signal at TAAR5 / GPCRome screening signal at TAAR6 / GPCRome screening signal at TAAR8 / GPCRome screening signal at TACR1 / GPCRome screening signal at TACR2 / GPCRome screening signal at TACR3 / GPCRome screening signal at TBXA2R / GPCRome screening signal at TSHR / GPCRome screening signal at UTS2R / GPCRome screening signal at VIPR2 / GPCRome screening signal at GPR68 no V2 Tail / GPCRome screening signal at GRM2 / GPCRome screening signal at GRM3: reference not given here
320 non-olfactory GPCRs [1] = target: 320 non-olfactory GPCRs (Homo sapiens, UniProt Q99500); settings: receptor S1PR3
320 non-olfactory GPCRs [2] = target: T1, 320 non-olfactory GPCRs (Homo sapiens, UniProt Q9P1P5); settings: receptor TAAR2
T1 construct: expressed in transfected cells; host or cells: HTLA cells

320 non-olfactory GPCRs [3] = target: T2, 320 non-olfactory GPCRs (Homo sapiens, UniProt Q9H1C0); settings: receptor GPR92
T2 construct: expressed in transfected cells; host or cells: HTLA cells

320 non-olfactory GPCRs [4] = target: 320 non-olfactory GPCRs (Homo sapiens, UniProt O95977); settings: receptor S1PR4
[5] = Fig_5f, single replicate values
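For GPCRome agonism screen response in this document: fold over basal response of each receptor without drug.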

Sequence of 320 non-olfactory GPCRs (Homo sapiens, UniProt Q99500) (Q99500 whole entry): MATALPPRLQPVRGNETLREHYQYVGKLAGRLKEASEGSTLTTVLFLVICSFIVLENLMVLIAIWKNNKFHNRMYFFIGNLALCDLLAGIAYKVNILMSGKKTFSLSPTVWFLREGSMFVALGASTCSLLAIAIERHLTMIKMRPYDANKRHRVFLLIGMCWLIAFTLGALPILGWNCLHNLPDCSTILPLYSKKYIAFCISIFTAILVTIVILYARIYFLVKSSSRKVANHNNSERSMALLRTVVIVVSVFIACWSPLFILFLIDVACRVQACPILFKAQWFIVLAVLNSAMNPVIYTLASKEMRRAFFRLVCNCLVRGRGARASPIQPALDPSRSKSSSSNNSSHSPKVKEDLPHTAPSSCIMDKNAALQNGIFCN
Sequence of 320 non-olfactory GPCRs (Homo sapiens, UniProt O95977) (O95977 whole entry): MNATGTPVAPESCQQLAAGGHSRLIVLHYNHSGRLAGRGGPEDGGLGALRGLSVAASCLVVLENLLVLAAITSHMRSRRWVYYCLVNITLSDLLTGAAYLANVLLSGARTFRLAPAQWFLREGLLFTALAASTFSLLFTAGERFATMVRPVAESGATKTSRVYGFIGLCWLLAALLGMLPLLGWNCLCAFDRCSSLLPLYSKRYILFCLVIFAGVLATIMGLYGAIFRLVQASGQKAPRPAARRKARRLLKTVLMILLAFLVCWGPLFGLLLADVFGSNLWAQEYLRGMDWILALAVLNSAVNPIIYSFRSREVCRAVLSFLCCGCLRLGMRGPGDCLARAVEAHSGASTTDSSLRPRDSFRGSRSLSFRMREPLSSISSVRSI
T2 sequence (Q9H1C0 whole entry): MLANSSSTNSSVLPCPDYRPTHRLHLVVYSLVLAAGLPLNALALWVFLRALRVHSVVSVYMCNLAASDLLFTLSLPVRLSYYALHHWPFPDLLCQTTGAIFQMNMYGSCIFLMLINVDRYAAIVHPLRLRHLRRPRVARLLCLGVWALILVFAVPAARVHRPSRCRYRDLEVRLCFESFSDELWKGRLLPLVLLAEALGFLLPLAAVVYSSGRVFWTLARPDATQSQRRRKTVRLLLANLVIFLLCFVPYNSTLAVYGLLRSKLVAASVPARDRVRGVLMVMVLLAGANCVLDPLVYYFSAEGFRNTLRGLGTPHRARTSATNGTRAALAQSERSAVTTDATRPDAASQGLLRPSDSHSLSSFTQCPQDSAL
T1 sequence (Q9P1P5 whole entry): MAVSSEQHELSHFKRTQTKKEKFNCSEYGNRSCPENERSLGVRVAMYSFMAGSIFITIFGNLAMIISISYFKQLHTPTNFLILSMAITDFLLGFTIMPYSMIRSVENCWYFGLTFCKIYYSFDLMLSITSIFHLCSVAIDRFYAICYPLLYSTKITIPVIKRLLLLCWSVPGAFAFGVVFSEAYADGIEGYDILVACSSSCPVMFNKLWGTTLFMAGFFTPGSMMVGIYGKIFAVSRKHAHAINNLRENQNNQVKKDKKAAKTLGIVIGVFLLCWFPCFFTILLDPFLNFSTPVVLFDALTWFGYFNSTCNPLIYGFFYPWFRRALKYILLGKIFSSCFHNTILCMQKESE

GPCRome screening signal at S1PR3 (320 non-olfactory GPCRs [1]; [5]) | GPCRome screening signal at TAAR2 (320 non-olfactory GPCRs [2]; [5]) | GPCRome screening signal at GPR92 (320 non-olfactory GPCRs [3]; [5]) | GPCRome screening signal at S1PR4 (320 non-olfactory GPCRs [4]; [5]) | Structure (SMILES) | GPCRome agonism screen response (320 non-olfactory GPCRs [1]; replicate values, Fig_4g) | GPCRome agonism screen response (320 non-olfactory GPCRs [2]; replicate values, Fig_4g) | GPCRome agonism screen response (320 non-olfactory GPCRs [3]; replicate values, Fig_4g) | GPCRome agonism screen response (320 non-olfactory GPCRs [4]; replicate values, Fig_4g)
– | – | – | – | CCOc1cccc2cc(C(C)NCC3(O)CCCCC3)oc12 (centres unmarked) [O4LE6] | 2.336 and 1.6343 and 1.172 and 1.379 | 2.656 and 0.9121 and 0.6733 and 0.6661 | 1.1613 and 0.7262 and 0.6248 and 2.678 | 0.2093 and 0.09901 and 4.053 and 0.7997
1.578 and 1.076 and 2.206 and 1.217 | 1.515 and 0.6858 and 1.3165 and 0.7903 | 0.9709 and 0.5547 and 0.5858 and 0.9422 | 1.441 and 1.208 and 0.7517 and 1.693 | CCOc1ccccc1CCC(C)NCC1(O)CCCCC1.Cl (racemic) [Fig_5f] | – | – | – | –
